Patent EP4722219A1 (Gan & Lee Pharmaceuticals Co., Ltd., priority 2023, dated 2024)

Columns and labels:
Format in all cases: cell-based
MCF-7 cells = experiment: Inhibition of cell proliferation in MCF-7 cells (CCK-8); settings: MCF-7 cell proliferation, 6 days treatment
In short: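 IC50 from CCK-8 viability-based inhibition after 6-day treatment of MCF-7 cells (800 cells/well, 10% FBS DMEM, 37 °C, 5% CO2) with serially varied compound concentrations.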

T-47D cells = experiment: Inhibition of cell proliferation in T-47D cells (CCK-8); settings: 6 days treatment, CCK-8 cell viability
In short: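 Viability by CCK-8 after a 6-day, 37 °C/5% CO2 exposure of T-47D cells (3,000/well, RPMI-1640 + 10% FBS) to graded PROTAC concentrations. Inhibition rates gave the IC50.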

ERα [1] = target: T1, ERα (Homo sapiens, UniProt P03372); experiment: ERα degradation in MCF-7 cells (Western blot); design: host or cells: MCF-7; settings: 4 hours
T1 sequence (P03372 1-595): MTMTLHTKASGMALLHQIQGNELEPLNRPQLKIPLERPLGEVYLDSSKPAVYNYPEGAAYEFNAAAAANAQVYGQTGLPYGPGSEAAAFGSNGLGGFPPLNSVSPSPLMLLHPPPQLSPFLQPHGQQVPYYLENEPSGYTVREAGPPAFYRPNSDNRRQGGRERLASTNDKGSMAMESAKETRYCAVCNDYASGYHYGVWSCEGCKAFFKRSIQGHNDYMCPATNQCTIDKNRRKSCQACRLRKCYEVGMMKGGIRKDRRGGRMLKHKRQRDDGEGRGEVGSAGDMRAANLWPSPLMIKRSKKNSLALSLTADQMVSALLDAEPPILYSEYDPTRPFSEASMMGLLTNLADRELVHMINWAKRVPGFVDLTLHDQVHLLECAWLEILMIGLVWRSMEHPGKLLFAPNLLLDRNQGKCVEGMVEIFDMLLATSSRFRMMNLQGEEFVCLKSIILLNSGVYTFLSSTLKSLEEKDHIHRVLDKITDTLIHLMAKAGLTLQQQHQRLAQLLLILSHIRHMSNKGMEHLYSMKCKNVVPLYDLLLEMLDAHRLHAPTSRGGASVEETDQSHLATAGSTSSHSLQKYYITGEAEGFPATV
In short: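 ERα degradation was quantified by immunoblot densitometry, ERα signal divided by internal-reference signal and compared with control. Compounds were applied to MCF-7 cells for 4 hours at final concentrations of 0.15–1000 nM, with 20 µg total protein loaded per lane.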

ERα [2] = target: T1, ERα; experiment: ERα degradation in T-47D cells (Western blot); settings: 4 hours
In short: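 ERα was quantified by immunoblot of RIPA lysates (20 µg total protein), normalised to an internal reference band, and degradation was expressed against control. Lysates came from T-47D cells plated at 3×10^5 cells/well and dosed 4 hours at 37°C with compound at 0.15-1000 nM final concentration.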

SMILES | IC50 (MCF-7 cells; Homo sapiens, MCF7, 144 h) [nM] | IC50 (T-47D cells; Homo sapiens, T47D, 144 h) [nM] | Degradation rate of ERα in MCF-7 cells (%) (ERα [1]; 1nM) | Degradation rate of ERα in MCF-7 cells (%) (ERα [1]; 10nM) | Degradation rate of ERα in T-47D cells (%) (ERα [2]; 1nM) | Degradation rate of ERα in T-47D cells (%) (ERα [2]; 10nM) | IC50 (MCF-7 cells) [nM] | IC50 (T-47D cells) [nM]
Cn1c(=O)n(C2CCC(=O)NC2=O)c2ccc3c(c21)C1(CCN(C2CCC4(CC2)CN(c2ccc([C@@H]5c6ccc(O)cc6CC[C@@H]5c5ccccc5)cc2)C4)CC1)CO3 (stereo partly drawn) [ER-P-19, 3-(1'-(2-(4-((1R,2S)-6-hydroxy-2-phenyl-1,2,3,4-tetrahydronaphthalen-1-yl)phenyl)-2-azaspiro[3.5]nonan-7-yl)-1-methyl-2-oxo-1,2-dihydro-3H,7H-spiro[benzofuro[4,5-d]imidazole-8,4'-piperidin]-3-yl)piperidine-2,6-dione] | 4460 | 10.3 | -8 | 7 | 6 | 15 |  | 
Cn1c(=O)n(C2CCC(=O)NC2=O)c2cc3c(cc21)C1(CCN(CC2CCC4(CC2)CN(c2ccc([C@@H]5c6ccc(O)cc6CC[C@@H]5c5ccccc5)cc2)C4)CC1)CO3 (stereo partly drawn) [ER-P-61] | 28.8 | 1.12 | 9 | 18 | 22 | 43 |  | 
Cn1c(=O)n(C2CCC(=O)NC2=O)c2ccc3c(c21)C1(CCN(C(=O)[C@H]2CC[C@H](CN4CCN(c5ccc([C@@H]6c7ccc(O)cc7CC[C@@H]6c6ccccc6)cc5)CC4)CC2)CC1)CO3 (stereo partly drawn) [ER-P-7] | 603 | 1.74 | 22 | 62 | 44 | 77 |  | 
O=C1CCC(N2Cc3c(ccc4c3OCC43CCC4(CCN(C5CC6(CCN(c7ccc([C@@H]8c9ccc(O)cc9CC[C@@H]8c8ccccc8)cc7)CC6)C5)CC4)CC3)C2=O)C(=O)N1 (stereo partly drawn) [ER-P-3] | < 0.256 | 3.02 | 25 | 69 | 28 | 73 |  | 
COc1cc2c(cc1C(=O)N[C@H]1CCC(=O)NC1=O)N(C)C[C@H]1CN(CC3CCC(OC4CCN(c5ccc([C@@H]6c7ccc(O)cc7CC[C@@H]6c6ccccc6)cc5)CC4)CC3)CCN21 (stereo partly drawn) [ER-P-49, (R)-N-((S)-2,6-dioxopiperidin-3-yl)-3-(((1S,4S)-4-((1-(4-((1R,2S)-6-hydroxy-2-phenyl-1,2,3,4-tetrahydronaphthalen-1-yl)phenyl)piperidin-4-yl)oxy)cyclohexyl)methyl)-9-methoxy-6-methyl-2,3,4,4a,5,6-hexahydro-1H-pyrazino[1,2-a]quinoxaline-8-carboxamide] |  |  | -12 | 23 | -11 | 30 | 3730 | 1.17
O=C1CCC(Nc2ccc3c(c2)OCC32CCN(C[C@H]3CC[C@@H](OC4CCN(c5ccc([C@@H]6c7ccc(O)cc7CC[C@@H]6c6ccccc6)cc5)CC4)CC3)CC2)C(=O)N1 (stereo partly drawn) [ER-P-31, 3-((1'-(((1S,4s)-4-((1-(4-((1R,2S)-6-hydroxy-2-phenyl-1,2,3,4-tetrahydronaphthalen-1-yl)phenyl)piperidin-4-yl)oxy)cyclohexyl)methyl)-2H-spiro[benzofuran-3,4'-piperidin]-6-yl)amino)piperidine-2,6-dione] | 54.8 | 2.71 | 29 | 71 | 26 | 79 |  | 
Cn1c(=O)n(C2CCC(=O)NC2=O)c2ccc3c(c21)OCC31CCN(C2CC3(C2)CN(c2ccc([C@@H]4c5ccc(O)cc5CC[C@@H]4c4ccccc4)cc2)C3)CC1 (stereo partly drawn) [ER-P-18, 3-(1'-(2-(4-((1R,2S)-6-hydroxy-2-phenyl-1,2,3,4-tetrahydronaphthalen-1-yl)phenyl)-2-azaspiro[3.3]heptan-6-yl)-1-methyl-2-oxo-1,2-dihydro-3H,7H-spiro[benzofuro[6,7-d]imidazole-6,4'-piperidin]-3-yl)piperidine-2,6-dione] | 7240 | 13.7 | 33 | 18 | 20 | 23 |  | 
O=C1CCC(N2Cc3c(ccc4c3OCC43CCC4(CCN(C5CCN(C(=O)C6CCN(c7ccc([C@@H]8c9ccc(O)cc9CC[C@@H]8c8ccccc8)cc7)CC6)CC5)CC4)CC3)C2=O)C(=O)N1 (stereo partly drawn) [ER-P-5] | < 0.256 | 0.96 | 25 | 57 | 39 | 79 |  | 
C[C@@H]1Cc2cc(O)ccc2C(c2c(F)cc(N3CCC4(CCC(N5CC6(CCC7(CC6)COc6c7ccc7c6CN(C6CCC(=O)NC6=O)C7=O)C5)CC4)CC3)cc2F)N1CC(F)F (stereo partly drawn) [ER-P-21, 3-(1-(3-(4-((3R)-2-(2,2-difluoroethyl)-6-hydroxy-3-methyl-1,2,3,4-tetrahydroisoquinolin-1-yl)-3,5-difluorophenyl)-3-azaspiro[5.5]undecan-9-yl)-6"-oxo-6",8"-dihydro-2"H,7"H-dispiro[azetidine-3,1'-cyclohexane-4',3"-furo[2,3-e]isoindol]-7"-yl)piperidine-2,6-dione] | 15.1 | 1.3 | 50 | 69 | 42 | 65 |  | 
Cn1c(=O)n(C2CCC(=O)NC2=O)c2cc3c(cc21)C1(CCN(CC2CCN(c4ccc([C@@H]5c6ccc(O)cc6CC[C@@H]5c5ccccc5)cc4)CC2)CC1)CO3 (stereo partly drawn) [ER-P-24, 3-(1'-((1-(4-((1R,2S)-6-hydroxy-2-phenyl-1,2,3,4-tetrahydronaphthalen-1-yl)phenyl)piperidin-4-yl)methyl)-1-methyl-2-oxo-1,2-dihydro-3H,6H-spiro[benzofuro[5,6-d]imidazole-7,4'-piperidin]-3-yl)piperidine-2,6-dione] | 1070 | 19.2 | -68 | -39 | -16 | -49 |  | 
O=C1CCC(Nc2ccc3c(c2)OC[C@@H]2CN(C4CC5(CCN(c6ccc([C@@H]7c8ccc(O)cc8CC[C@@H]7c7ccccc7)cc6)CC5)C4)CCN32)C(=O)N1 (stereo partly drawn) [ER-P-35] | 876 | 22.7 | 6 | -3 | 21 | 21 |  | 
O=C1CC[C@H](N2Cc3cc(N4CCN(CC5CCN(c6ccc([C@@H]7c8ccc(O)cc8CC[C@@H]7c7ccccc7)cc6)CC5)CC4)ccc3C2=O)C(=O)N1 [ARV-471, reference compound] | 0.0017 | 0.0017 | 38 | 76 | 61 | 85 |  | 
O=C1CCC(N2Cc3c(ccc4c3OCC43CCC4(CC3)CN(C3CCC5(CC3)CCN(c3ccc([C@@H]6c7ccc(O)cc7CC[C@@H]6c6ccccc6)cc3)CC5)C4)C2=O)C(=O)N1 (stereo partly drawn) [ER-P-9] | 7.44 | 1.96 | 30 | 71 | 46 | 83 |  | 
O=C1CCC(Nc2ccc3c(c2)COC[C@H]2CN(CC4CCC(OC5CCN(c6ccc([C@@H]7c8ccc(O)cc8CC[C@@H]7c7ccccc7)cc6)CC5)CC4)CCN32)C(=O)N1 (single isomer, unassigned) [ER-P-51] |  |  | 5 | 1 | 14 | 12 | 1260 | 74.3
